Publication PMC5452035, “Structural insight into recognition of phosphorylated threonine‐4 of RNA polymerase II C‐terminal domain by Rtt103p” (EMBO Reports, 2017)
Substitutions are numbered along the chain they refer to. Non-standard residues stand in square brackets, D forms with d. No end group written: not given here. pY = N[C@@H](Cc1ccc(OP(=O)(O)O)cc1)C(=O)O; FAM = 5,6-carboxyfluorescein

Legend:
Rtt103p CID = target: T1, Rtt103p CID (Saccharomyces cerevisiae, UniProt Q05543); assay: Equilibrium binding by fluorescence anisotropy (FA), wild-type Rtt103p CID; design: species or system yeast
T1 construct: Rtt103p CID (3‐131–6xHIS) was expressed and purified as previously described; 6xHis (C); made in house; host or cells: E. coli BL21-Codon Plus (DE3)-RIPL
T1 sequence (Q05543 3-131): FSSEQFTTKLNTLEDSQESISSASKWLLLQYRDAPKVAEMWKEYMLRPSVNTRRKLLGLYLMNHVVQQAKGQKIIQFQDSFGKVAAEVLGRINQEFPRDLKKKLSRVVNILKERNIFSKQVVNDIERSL

Rtt103p CID Q19A = target: T2, Rtt103p CID Q19A (Saccharomyces cerevisiae, UniProt Q05543, Q19A); assay: Equilibrium binding by fluorescence anisotropy (FA), Rtt103p CID Q19A mutant; design: species or system yeast; settings: Rtt103p CID Q19A mutant titrated into 10 nM FAM‐labelled CTD peptide, 10°C, pH 6.8, ± standard deviation of the fit
T2 construct: Rtt103p CID (3‐131–6xHIS) was expressed and purified as previously described; 6xHis (C); made in house; host or cells: E. coli BL21-Codon Plus (DE3)-RIPL
T2 sequence (Q05543 3-131 Q19A): T1 sequence (Q05543 3-131) with Q17A
Procedure: The equilibrium binding of Rtt103p CID constructs to differently phosphorylated CTD was analysed by fluorescence anisotropy. The CTD peptides were N‐terminally labelled with the 5,6‐carboxyfluorescein (FAM). The measurements were conducted on a FluoroLog‐3 spectrofluorometer (Horiba Jobin‐Yvon Edison, NJ). The instrument was equipped with a thermostatted cell holder with a Neslab RTE7 water bath (Thermo Scientific). Samples were excited with vertically polarized light at 467 nm, and both vertical and horizontal emissions were recorded at 516 nm. All measurements were conducted at 10°C in 35 mM KH2PO4, 100 mM KCl (pH 6.8). Each data point is an average of three measurements. The experimental binding isotherms were analysed by DynaFit using 1:1 model with non‐specific binding 39.

| Compound | binding with Rtt103p (in words) (Rtt103p CID; fluorescence anisotropy, 10 nM FAM‐labelled CTD peptide, 10°C, pH 6.8) | Kd (Rtt103p CID) [µM] | Kd (Rtt103p CID Q19A) [µM] |
| --- | --- | --- | --- |
| PS pYSPTSPS YSPTSPS: FAM‐labelled CTD peptide with the pTyr1 mark in the central heptad ({FAM}-PS[pY]SPTSPSYSPTSPS) | completely abolished the binding | – | – |
| C[C@@H](O)[C@H](NC(=O)[C@@H]1CCCN1C(=O)[C@H](CO)NC(=O)[C@H](Cc1ccc(O)cc1)NC(=O)[C@H](CO)NC(=O)[C@@H]1CCCN1C(=O)[C@H](CO)NC(=O)[C@@H](NC(=O)[C@@H]1CCCN1C(=O)[C@H](COP(=O)(O)O)NC(=O)[C@H](Cc1ccc(O)cc1)NC(=O)[C@H](CO)NC(=O)[C@@H]1CCCN1C(=O)c1ccc2c(c1)C(=O)OC21c2ccc(O)cc2Oc2cc(O)ccc21)[C@@H](C)OP(=O)(O)O)C(=O)N[C@@H](CO)C(=O)N1CCC[C@H]1C(=O)N[C@@H](CO)C(=O)O [PS YpSPpTSPS YSPTSPS] | – | 43 ± 2 | – |
| C[C@@H](OP(=O)(O)O)[C@H](NC(=O)[C@@H]1CCCN1C(=O)[C@H](CO)NC(=O)[C@H](Cc1ccc(O)cc1)NC(=O)[C@H](CO)NC(=O)[C@@H]1CCCN1C(=O)[C@H](CO)NC(=O)[C@@H](NC(=O)[C@@H]1CCCN1C(=O)[C@H](CO)NC(=O)[C@H](Cc1ccc(O)cc1)NC(=O)[C@H](CO)NC(=O)[C@@H]1CCCN1C(=O)c1ccc2c(c1)C(=O)OC21c2ccc(O)cc2Oc2cc(O)ccc21)[C@@H](C)OP(=O)(O)O)C(=O)N[C@@H](CO)C(=O)N1CCC[C@H]1C(=O)N[C@@H](CO)C(=O)O [Doubly phosphorylated pThr4‐CTD] | – | 6 ± 0.2 | – |
| C[C@@H](O)[C@H](NC(=O)[C@@H]1CCCN1C(=O)[C@H](CO)NC(=O)[C@H](Cc1ccc(O)cc1)NC(=O)[C@H](CO)NC(=O)[C@@H]1CCCN1C(=O)[C@H](CO)NC(=O)[C@@H](NC(=O)[C@@H]1CCCN1C(=O)[C@H](COP(=O)(O)O)NC(=O)[C@H](Cc1ccc(O)cc1)NC(=O)[C@H](CO)NC(=O)[C@@H]1CCCN1C(=O)c1ccc2c(c1)C(=O)OC21c2ccc(O)cc2Oc2cc(O)ccc21)[C@@H](C)O)C(=O)N[C@@H](CO)C(=O)N1CCC[C@H]1C(=O)N[C@@H](CO)C(=O)O [pSer2‐CTD] | – | 6 ± 0.2 | – |
| C[C@@H](O)[C@H](NC(=O)[C@@H]1CCCN1C(=O)[C@H](CO)NC(=O)[C@H](Cc1ccc(O)cc1)NC(=O)[C@H](CO)NC(=O)[C@@H]1CCCN1C(=O)[C@H](CO)NC(=O)[C@@H](NC(=O)[C@@H]1CCCN1C(=O)[C@H](CO)NC(=O)[C@H](Cc1ccc(O)cc1)NC(=O)[C@H](CO)NC(=O)[C@@H]1CCCN1C(=O)c1ccc2c(c1)C(=O)OC21c2ccc(O)cc2Oc2cc(O)ccc21)[C@@H](C)OP(=O)(O)O)C(=O)N[C@@H](CO)C(=O)N1CCC[C@H]1C(=O)N[C@@H](CO)C(=O)O [pThr4‐CTD] | – | 15 ± 1 | 48 ± 5 |
